The results in this text go back to BindingDB's records for doi:10.1021/acs.jmedchem.8b01644 (University of Montpellier, 2019).

A short description of assay [1]: Antagonist activity at human SNAP-tagged GHSR expressed in HEK293T cells assessed as reduction in ghrelin-induced calcium production at 1 uM by measuring ghrelin EC50 after 15 mins by Fluo 4-AM dye-based fluorescence assay (Rvb = 0.41 +/- […]).
Assay [2] is described as follows: Antagonist activity at SNAP-tagged human GHSR expressed in HEK293T cells assessed as reduction in ghrelin-induced inositol phosphate production at 1 uM by measuring ghrelin EC50 after 30 mins by HTRF assay (Rvb = 0.36 +/- 0.01 nM). For orientation: TR-FRET usually uses a lanthanide donor and a delayed reading to cut background.
Assay [3] is described as follows: Antagonist activity at SNAP-tagged human GHSR expressed in HEK293T cells assessed as reduction in ghrelin-induced inositol phosphate production at 1 uM by measuring ghrelin EC50 after 30 mins by HTRF assay (Rvb = 0.40 +/- 0.05 nM).
Assay [4] can be described thus: Antagonist activity at human SNAP-tagged GHSR expressed in HEK293T cells assessed as reduction in ghrelin-induced calcium production at 1 uM by measuring ghrelin EC50 after 15 mins by Fluo 4-AM dye-based fluorescence assay (Rvb = 0.34 +/- 0.12 nM).

Positions of bridges follow the written chain, without caps; N, C: chain ends. Non-standard residues stand in square brackets, D forms with d. Residues, ends and D or L forms follow the SMILES beside them. Nle = CCCC[C@H](N)C(=O)O

Consider `CC[C@H](C)[C@@H]1NC(=O)[C@@H]2CSSC[C@@H](C(=O)N[C@@H](CO)C(=O)N[C@@H](CC(C)C)C(=O)N[C@@H](CO)C(=O)N[C@H](C(=O)N[C@@H](C)C(=O)N[C@@H](CCC(N)=O)C(=O)N[C@@H](CCC(=O)O)C(=O)O)C(C)C)NC(=O)[C@H](CCCNC(=N)N)NC(=O)[C@H](CCCNC(=N)N)NC(=O)[C@H](CCCCN)NC(=O)[C@H](CCCNC(=N)N)NC(=O)[C@H](CSSC[C@H](NC(=O)[C@H](CO)NC(=O)[C@H](C)NC(=O)CNC(=O)[C@@H](NC(=O)[C@@H]3CCCN3C(=O)[C@H](CCCNC(=N)N)NC(=O)[C@H](CC(C)C)NC(=O)[C@H](CO)NC(=O)[C@@H](NC(=O)CNC(=O)[C@H](CCCNC(=N)N)NC(=O)[C@H](Cc3c[nH]c4ccccc34)NC(=O)[C@H](Cc3ccccc3)NC(=O)[C@@H]3CCCN3C(=O)[C@@H](NC(=O)[C@@H](N)CCSC)[C@@H](C)O)C(C)C)[C@@H](C)CC)C(=O)N[C@@H](CCCNC(=N)N)C(=O)N[C@@H](CC(=O)O)C(=O)N[C@@H](CC(=O)O)C(=O)N[C@@H](CO)C(=O)N[C@@H](CCC(=O)O)C(=O)N2)NC(=O)[C@H](CC(C)C)NC(=O)[C@H](CCCNC(=N)N)NC(=O)[C@H]([C@@H](C)O)NC1=O` (H-MTPFWRGVSLRPIGASCRDDSECITRLCRKRRCSLSVAQE-OH; disulfide 17-28, 23-33), for which the EC50 came to 28 nM in assay [1] and 17 nM in assay [2].

Consider `CCCC[C@H](N)C(=O)N[C@H](C(=O)N1CCC[C@H]1C(=O)N[C@@H](Cc1ccccc1)C(=O)N[C@@H](Cc1c[nH]c2ccccc12)C(=O)N[C@@H](CCCNC(=N)N)C(=O)NCC(=O)N[C@H](C(=O)N[C@@H](CO)C(=O)N[C@@H](CC(C)C)C(=O)N[C@@H](CCCNC(=N)N)C(=O)N1CCC[C@H]1C(=O)N[C@H](C(=O)NCC(=O)O)[C@@H](C)CC)C(C)C)[C@@H](C)O` (H-[Nle]TPFWRGVSLRPIG-OH), for which the EC50 in assay [3] is 2.5 nM; in assay [4], 18 nM.

The EC50 is the concentration at which the effect is half-maximal.
